In article PMC3345137 (Toxicology and Applied Pharmacology, 2011):

Legend:
[1] = biological target: T1, Rat hydrolase A (Rattus norvegicus, UniProt P16303); assay type: biochemical
T1 sequence (P16303 19-565): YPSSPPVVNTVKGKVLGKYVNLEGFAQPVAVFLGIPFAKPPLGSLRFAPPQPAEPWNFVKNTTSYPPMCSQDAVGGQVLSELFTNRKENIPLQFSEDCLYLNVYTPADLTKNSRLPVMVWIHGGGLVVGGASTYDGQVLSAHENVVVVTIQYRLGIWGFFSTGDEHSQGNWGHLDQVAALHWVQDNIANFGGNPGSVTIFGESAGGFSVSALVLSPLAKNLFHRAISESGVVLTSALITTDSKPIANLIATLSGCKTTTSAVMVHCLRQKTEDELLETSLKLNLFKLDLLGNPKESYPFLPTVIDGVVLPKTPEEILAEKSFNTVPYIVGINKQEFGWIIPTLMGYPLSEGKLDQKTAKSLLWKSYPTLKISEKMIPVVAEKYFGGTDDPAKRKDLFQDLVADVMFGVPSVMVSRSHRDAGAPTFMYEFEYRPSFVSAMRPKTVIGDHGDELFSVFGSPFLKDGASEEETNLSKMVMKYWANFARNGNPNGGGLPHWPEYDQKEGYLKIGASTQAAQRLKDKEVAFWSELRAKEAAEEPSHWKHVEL

[2] = system: recombinant human butyrylcholinesterase; conditions: experimental, ref Amitai et al., 1998; cited from earlier work
[3] = system: butyrylcholinesterase; conditions: purified butyrylcholinesterase; ref Shenouda et al., 2009; cited from earlier work
[4] = biological target: porcine liver carboxylesterase; conditions: 25°C, ref Quistad and Casida, 2000; cited from earlier work
[5] = system: recombinant human acetylcholinesterase; conditions: experimental, ref Amitai et al., 1998; cited from earlier work
[6] = biological target: T2, Human recombinant CES2 (Carboxylesterase 2) (Homo sapiens, UniProt O00748); assay type: biochemical
T2 sequence (O00748 27-559): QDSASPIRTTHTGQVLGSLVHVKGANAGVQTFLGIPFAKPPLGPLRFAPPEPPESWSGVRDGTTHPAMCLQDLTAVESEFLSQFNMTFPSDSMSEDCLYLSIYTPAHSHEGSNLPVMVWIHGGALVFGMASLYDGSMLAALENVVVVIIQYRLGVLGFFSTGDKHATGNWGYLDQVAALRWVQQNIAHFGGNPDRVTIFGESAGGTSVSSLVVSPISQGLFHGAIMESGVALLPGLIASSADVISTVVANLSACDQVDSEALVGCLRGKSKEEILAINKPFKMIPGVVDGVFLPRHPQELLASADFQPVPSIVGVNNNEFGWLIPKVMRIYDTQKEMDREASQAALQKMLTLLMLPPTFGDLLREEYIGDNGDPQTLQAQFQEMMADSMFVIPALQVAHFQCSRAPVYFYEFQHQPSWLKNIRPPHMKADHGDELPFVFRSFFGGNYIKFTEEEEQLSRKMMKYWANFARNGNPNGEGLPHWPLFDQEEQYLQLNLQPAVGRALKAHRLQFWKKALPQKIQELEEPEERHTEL

[7] = biological target: T3, Human recombinant MGL (Monoacylglycerol lipase) (Homo sapiens, UniProt Q99685); assay type: biochemical; conditions: Michaelis constant of substrate pNPV with MGL, no inhibitor
T3 sequence (Q99685 1-303): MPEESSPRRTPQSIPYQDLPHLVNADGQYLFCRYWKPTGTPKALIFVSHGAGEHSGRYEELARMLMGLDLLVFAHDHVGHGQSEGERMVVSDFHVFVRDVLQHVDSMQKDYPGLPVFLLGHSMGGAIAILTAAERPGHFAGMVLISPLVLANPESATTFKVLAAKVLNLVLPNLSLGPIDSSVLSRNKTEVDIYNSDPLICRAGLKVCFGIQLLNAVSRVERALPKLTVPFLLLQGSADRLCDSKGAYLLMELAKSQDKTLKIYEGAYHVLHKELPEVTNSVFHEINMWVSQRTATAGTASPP

[8] = biological target: T4, Human recombinant CES1 (Carboxylesterase 1) (Homo sapiens, UniProt P23141); assay type: biochemical; conditions: Michaelis constant of substrate pNPV with CES1, no inhibitor
T4 sequence (P23141 18-567): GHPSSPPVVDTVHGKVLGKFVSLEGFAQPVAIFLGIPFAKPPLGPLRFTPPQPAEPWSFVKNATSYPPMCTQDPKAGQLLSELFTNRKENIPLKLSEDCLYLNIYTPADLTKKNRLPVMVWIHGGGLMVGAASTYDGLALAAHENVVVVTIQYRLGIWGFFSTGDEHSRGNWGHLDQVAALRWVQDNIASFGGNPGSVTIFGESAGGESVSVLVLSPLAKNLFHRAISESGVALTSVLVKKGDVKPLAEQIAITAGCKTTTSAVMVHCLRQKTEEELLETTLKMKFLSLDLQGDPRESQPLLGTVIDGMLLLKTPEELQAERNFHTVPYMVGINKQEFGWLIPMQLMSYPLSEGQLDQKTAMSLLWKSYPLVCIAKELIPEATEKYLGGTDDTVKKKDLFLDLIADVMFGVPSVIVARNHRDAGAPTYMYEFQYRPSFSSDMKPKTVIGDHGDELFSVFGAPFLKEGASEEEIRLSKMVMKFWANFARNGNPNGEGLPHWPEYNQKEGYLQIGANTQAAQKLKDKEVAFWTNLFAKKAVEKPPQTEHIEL

SMILES	bimolecular rate constant ([1]; rat hydrolase A purified from rat liver)	bimolecular rate constant [2]	bimolecular rate constant [3]	IC50 [4]	bimolecular rate constant [5]	true bimolecular rate constant ([6]; CES2, single representative experiment, calculated with Equation (4))	apparent bimolecular rate constant (ki’= kinact/KI’) ([6]; CES2, single representative experiment, pNPV 500 µM, 37°C)	Km ([1]; Michaelis constant of substrate pNPV with rat hydrolase A, no inhibitor)	Km ([6]; Michaelis constant of substrate pNPV with CES2, no inhibitor)	Km [7]	Km [8]
CCOP(=O)(OCC)Oc1nc(Cl)c(Cl)cc1Cl [Chlorpyrifos Oxon, Chlorpyrifos oxon]	3.3e+06 M⁻¹ s⁻¹	2.78e+07 M⁻¹ s⁻¹	8.47e+08 M⁻¹ s⁻¹	2 nM	167000 M⁻¹ s⁻¹	–	–	–	–	–	–
CCOP(=O)(OCC)Oc1ccc([N+](=O)[O-])cc1 [Paraoxon]	–	–	–	3 nM	–	29000 M⁻¹ s⁻¹	4400 M⁻¹ s⁻¹	–	–	–	–
CCCCC(=O)Oc1ccc([N+](=O)[O-])cc1 [pNPV, para-Nitrophenyl valerate]	–	–	–	–	–	–	–	32.6 µM	90 ± 12 µM	158 ± 37 µM	136 ± 40 µM
